Source: patent US20130004579A1, “Use of Plant Lectins to Target Leukocytes” (priority 2011, published 2013)

How the values were obtained:
[1] = system: C57BL/6 splenocytes, T cells (CD3+); experiment: Lectin-conjugated NR-PS particle uptake by splenocyte populations (Example 8): T cells; format: cell-based, mouse; conditions: lectin 100 μg/ml; live cells
Procedure: (§1) Splenocytes were isolated from C57BL/6 mice and cultured as described above, at a density of 2×10^6 cells/ml in a 96 well U-bottomed plate, in 100 μl of complete RPMI 1640 medium. Cells were incubated for 5, 10 or 30 minutes at 37° C. with NR-PS particles (5, 50 or 100 μg/ml) or NR-PS particles (5, 50 or 100 μg/ml) conjugated with biotinylated UEA-1 (100 μg/ml), biotinylated SBA (100 μg/ml), biotinylated PHA-E ([…]), biotinylated PHA-L (100 μg/ml) or biotinylated DSL (100 μg/ml). Cells were transferred to FACS tubes, washed in FACS buffer, centrifuged at 1200 rpm for 5 minutes (×3) and resuspended in 100 μl FACS buffer. Cells were then incubated with Fc Block™ (2.5 μg/ml; BD Pharmingen, San Diego, Calif.) for 10 minutes. Determination of cell types was achieved by labelling characteristic cell surface markers with fluorescently-labelled antibodies—T cells were determined as being CD3^+, dendritic cells CD11c^+, macrophages F4/80^+, granulocytes Gr1^+ and B cells CD19^+. Cells were incubated on ice for 30 minutes in the dark and then washed in FACS buffer and centrifuged at 1200 rpm for 5 minutes (×3). After washing, cells were resuspended in 200 μl of FACS buffer.
(§2) A CyAn™ ADP flow cytometer (Beckman Coulter, Inc., Miami, Fla.), Summit™ software (Dako North America, Inc., Carpinteria, Calif.) and FlowJo™ software (Treestar, Inc., Ashland, Oreg.) were used to analyze the uptake of particles by various cells populations. Live cells were gated on by their FSC and SSC properties in order to roughly estimate the degree of cell death. Particle uptake was calculated for each cell subtype from the data in FIGS. 11A-11D, showing the percentages of both cell marker- and particle-positive cells within the live cell population. Unstimulated cells were used as controls.

[2] = system: Bone marrow-derived macrophages (iBMMs); experiment: Flow cytometry uptake of lectin-conjugated NR-PS particles by live iBMMs (Example 6); format: cell-based; conditions: 10 minute incubation; lectin 100 μg/ml
Procedure: (§3) C57BL/6 BMDCs and iBMMs were isolated and cultured as described above at a density of 1×10^6 cells/ml in a 96 well U-bottomed plate in 100 μl complete RPMI 1640 medium with 10 ng/ml GM-CSF. Cells were stimulated for 10 or 30 minutes at 37° C. with NR-PS particles (5, 50 or 100 μg/ml) or NR-PS particles (5, 50 or 100 μg/ml) conjugated with biotinylated UEA-1 (100 μg/ml), biotinylated SBA (100 μg/ml), biotinylated PHA-E (100 μg/ml), biotinylated PHA-L (100 μg/ml) or biotinylated DSL (100 μg/ml). Cells were then scraped into FACS tubes, washed in FACS buffer, centrifuged at 1200 rpm for 5 minutes (×3) and resuspended in 200 μl of FACS buffer.
(§4) A FACSCanto™ II flow cytometer (BD Biosciences, San Jose, Calif.), FACSDiva™ software (BD Biosciences, San Jose, Calif.) and FlowJo™ software (Treestar, Inc., Ashland, Oreg.) were used to analyze the uptake of particles by various cell populations. Live cells were gated on by their FSC and SSC properties in order to estimate the degree of cell death. Particle uptake was quantified by determining the percentage of live cells taking up particles. Unstimulated cells were used as controls.

C57BL/6 BMDCs = experiment: Flow cytometry uptake of lectin-conjugated NR-PS particles by live BMDCs (Example 6); format: cell-based, mouse; conditions: 30 minute incubation; lectin 100 μg/ml
Procedure: as §3, §4

[3] = system: C57BL/6 splenocytes, B cells (CD19+); experiment: Lectin-conjugated NR-PS particle uptake by splenocyte populations (Example 8): B cells; format: cell-based, mouse; conditions: lectin 100 μg/ml; live cells
Procedure: as §1, §2

[4] = system: C57BL/6 splenocytes, dendritic cells (CD11c+); experiment: Lectin-conjugated NR-PS particle uptake by splenocyte populations (Example 8): dendritic cells; format: cell-based, mouse; conditions: lectin 100 μg/ml; live cells
Procedure: as §1, §2

[5] = system: C57BL/6 splenocytes, macrophages (F4/80+); experiment: Lectin-conjugated NR-PS particle uptake by splenocyte populations (Example 8): macrophages; format: cell-based, mouse; conditions: lectin 100 μg/ml; live cells
Procedure: as §1, §2

[6] = system: C57BL/6 splenocytes, granulocytes (Gr1+); experiment: Lectin-conjugated NR-PS particle uptake by splenocyte populations (Example 8): granulocytes; format: cell-based, mouse; conditions: lectin 100 μg/ml; live cells
Procedure: as §1, §2

Row | Substance | percentage of T cells found to have taken up particles [1] | percentage of live iBMMs found to have taken up particles [2] | percentage of live BMDCs found to have taken up particles (C57BL/6 BMDCs) | percentage of B cells found to have taken up particles [3] | percentage of dendritic cells found to have taken up particles [4] | percentage of macrophages found to have taken up particles [5] | percentage of granulocytes found to have taken up particles [6]
1 | NR-PS particles conjugated with biotinylated PHA-L: Nile Red streptavidin-coated polystyrene particles conjugated with biotinylated Phaseolus vulgaris leukoagglutinin | 62.4% | 79.6% | 89.6% | 80.5% | 79.0% | 89.9% | 80.7%
2 | NR-PS particles conjugated with biotinylated PHA-E: Nile Red streptavidin-coated polystyrene particles conjugated with biotinylated Phaseolus vulgaris erthyroagglutinin | 18.1% | 91.0% | 89.7% | 45.5% | 67.7% | 79.4% | 74.0%
3 | NR-PS particles conjugated with biotinylated SBA: Nile Red streptavidin-coated polystyrene particles conjugated with biotinylated soybean agglutinin | 6.4% | 93.4% | 83.2% | 70.8% | 56.3% | 84.8% | 65.6%
